# Data from the supplement of paper PMC10307832.
# Experiments:
# Test in all cases: relative viability (nuclei count vs DMSO), 5 days (fraction); higher = more cells survive
# [1] = compound: COc1cc2nccc(Oc3ccc(NC(=O)C4(C(=O)Nc5ccc(F)cc5)CC4)cc3)c2cc1OC [Cabozantinib] + Cc1nc(NC(=O)N2CCC[C@H]2C(N)=O)sc1-c1ccnc(C(C)(C)C(F)(F)F)c1 [Alpelisib] (partner 2 µM)
# Summary of the method: (§1)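 Values are medians from duplicate plates. Each reflects relative viability, defined as the nuclei count of treated wells over that of vehicle wells. Lung cancer cell lines in 1536-well plates were pin-tool dosed one day after seeding with one drug alone or with a fixed anchor-drug dose plus five library-drug doses (not always all listed) in √10 steps, then fixed, stained and imaged at 4× after 5 days.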
# [2] = compound: O[C@@H](COc1cccc2ncccc12)CN1CCN([C@@H]2c3ccccc3[C@@H]3[C@H](c4ccccc42)C3(F)F)CC1 [Zosuquidar] + CCNC(=O)c1noc(-c2cc(C(C)C)c(O)cc2O)c1-c1ccc(CN2CCOCC2)cc1 [Luminespib] (partner 0.01 µM)
# Summary of the method: as §1
# [3] = compound: C1=CC(=CC=C1NC(=S)NNC2=C(C=C(C=C2[N+](=O)[O-])C(F)(F)F)[N+](=O)[O-])F [Kobe2602] + CC(=O)c1c(C)c2cnc(Nc3ccc(N4CCNCC4)cn3)nc2n(C2CCCC2)c1=O [Palbociclib] (partner 0.5 µM)
# Summary of the method: as §1
# [4] = compound: COc1cc2nccc(Oc3ccc(NC(=O)C4(C(=O)Nc5ccc(F)cc5)CC4)cc3)c2cc1OC [Cabozantinib] + CC(=O)Nc1cccc(-n2c(=O)n(C3CC3)c(=O)c3c(Nc4ccc(I)cc4F)n(C)c(=O)c(C)c32)c1 [Trametinib] (partner 0.02 µM)
# Summary of the method: as §1
Cell Line,relative viability ([1]; first compound 0.02 µM),relative viability ([1]; first compound 0.06325 µM),relative viability ([1]; first compound 0.2 µM),relative viability ([1]; first compound 0.6325 µM),relative viability ([1]; first compound 2 µM),relative viability ([2]; first compound 0.01 µM),relative viability ([2]; first compound 0.03162 µM),relative viability ([2]; first compound 0.1 µM),relative viability ([2]; first compound 0.3162 µM),relative viability ([2]; first compound 1 µM),relative viability ([3]; first compound 0.2 µM),relative viability ([3]; first compound 0.6325 µM),relative viability ([3]; first compound 2 µM),relative viability ([3]; first compound 6.325 µM),relative viability ([3]; first compound 20 µM),relative viability ([4]; first compound 0.02 µM),relative viability ([4]; first compound 0.06325 µM),relative viability ([4]; first compound 0.2 µM),relative viability ([4]; first compound 0.6325 µM),relative viability ([4]; first compound 2 µM)
NCI-H1755,0.993,0.919,0.882,0.877,0.764,0.335,0.729,0.564,0.358,0.471,0.457,0.467,0.484,0.459,0.465,0.816,0.765,0.795,0.73,0.718
A-427,1.08,1.12,1.12,1.05,1.01,1.15,0.963,0.749,1.13,0.756,0.593,0.571,0.522,0.606,0.532,0.729,0.801,0.772,0.762,0.743
PC-3 [JPC-3],1.02,1.16,–,1.06,1.04,0.697,0.647,0.647,0.658,0.75,0.587,0.524,0.561,0.482,0.501,0.696,0.755,–,0.736,0.739
LOU-NH91,0.721,0.793,0.505,0.742,0.713,0.331,0.317,–,0.343,0.355,0.475,0.5,0.537,0.526,0.529,0.778,0.866,0.692,0.785,0.748
BEN,0.992,1.11,1.01,1.06,0.776,0.374,0.218,0.381,0.274,0.329,0.502,0.497,0.481,0.483,0.443,0.979,1.08,0.998,0.982,0.77
NCI-H2085,1.15,1.01,0.982,0.915,0.843,0.425,0.526,0.531,0.44,0.471,0.506,0.481,0.508,0.489,0.418,0.876,0.6,0.571,0.463,0.398
LC-2-ad,0.869,0.976,0.834,0.659,0.45,1.05,0.85,0.981,0.999,0.987,0.466,0.514,0.533,0.506,0.484,0.924,0.948,0.92,0.761,0.48
NCI-H727,0.505,0.6,0.593,0.529,0.594,0.23,0.344,0.434,0.427,0.431,0.665,0.703,0.635,–,0.704,0.42,0.409,0.443,0.395,0.386
NCI-H1792,0.721,0.799,0.721,0.557,0.657,0.334,0.234,0.38,0.673,0.293,0.634,0.707,0.653,0.671,0.682,–,0.483,0.455,0.417,0.32
EPLC-272H,1.02,0.944,0.727,0.949,0.847,0.39,0.362,0.514,0.361,0.266,0.337,0.357,0.352,0.321,0.359,0.275,0.318,0.275,0.246,0.245
EKVX,0.788,0.898,0.695,0.886,0.951,0.926,0.8,0.749,0.812,0.832,0.456,0.386,0.375,0.408,0.379,0.377,0.406,0.249,0.409,0.351
NCI-H1666,1.02,1.09,0.924,0.972,1.03,0.966,0.978,0.945,1.01,1.08,0.644,0.628,0.596,0.647,0.619,0.845,0.83,0.798,0.883,0.878
HCC-15,0.881,0.933,0.925,0.905,0.761,0.122,0.5,0.21,0.222,0.533,0.698,0.72,0.662,0.547,0.618,0.417,0.373,0.36,0.356,0.314
LCLC-103H,1.08,0.859,0.951,0.861,0.752,0.983,0.957,0.74,0.93,1,0.504,0.518,0.537,0.539,0.491,0.716,0.709,0.678,0.68,0.667
NCI-H2405,–,0.858,0.838,0.744,0.67,0.671,0.687,0.589,0.654,0.824,0.52,0.572,0.537,0.553,0.528,0.658,0.666,0.615,0.59,0.473
NCI-H1915,1.1,1.08,1.03,1.08,1.07,0.742,0.839,0.792,0.753,0.811,0.512,0.558,0.578,0.536,0.57,0.331,0.345,0.335,0.304,0.28

Cell Line,relative viability ([1]; first compound 0.02 µM),relative viability ([1]; first compound 0.06325 µM),relative viability ([1]; first compound 0.2 µM),relative viability ([1]; first compound 0.6325 µM),relative viability ([1]; first compound 2 µM),relative viability ([2]; first compound 0.01 µM),relative viability ([2]; first compound 0.03162 µM),relative viability ([2]; first compound 0.1 µM),relative viability ([2]; first compound 0.3162 µM),relative viability ([2]; first compound 1 µM),relative viability ([3]; first compound 0.2 µM),relative viability ([3]; first compound 0.6325 µM),relative viability ([3]; first compound 2 µM),relative viability ([3]; first compound 6.325 µM),relative viability ([3]; first compound 20 µM),relative viability ([4]; first compound 0.02 µM),relative viability ([4]; first compound 0.06325 µM),relative viability ([4]; first compound 0.2 µM),relative viability ([4]; first compound 0.6325 µM),relative viability ([4]; first compound 2 µM)
NCI-H661,0.544,0.758,0.725,0.755,0.609,0.911,0.875,0.875,0.938,0.891,0.405,0.416,0.428,0.414,0.475,0.542,0.653,0.579,0.572,0.605
NCI-H647,1.2,1.43,1.37,0.956,0.535,0.116,0.165,0.181,0.142,0.177,0.334,0.467,0.373,0.425,0.409,0.541,0.451,0.449,0.424,0.41
NCI-H2087,1.07,1.12,0.978,1.03,0.995,0.155,–,0.184,0.195,0.16,0.202,0.258,0.21,0.297,0.237,0.166,0.258,0.216,0.195,0.209
SK-LU-1,–,1.29,0.983,0.718,0.705,0.228,0.201,0.177,0.204,0.219,0.396,0.402,0.338,0.428,0.459,0.475,0.58,0.623,0.4,0.451
HOP-62,0.981,1.02,1.43,0.807,1.08,0.878,0.947,0.914,0.99,0.896,0.442,0.499,0.419,0.456,0.485,0.413,0.389,0.4,0.376,0.349
NCI-H2126,0.798,0.764,0.73,0.755,0.765,0.93,0.909,–,0.935,0.952,0.379,0.357,0.343,0.346,0.35,0.534,0.594,0.568,0.589,0.578
NCI-H441,–,0.857,0.663,0.815,0.783,0.355,0.244,0.403,0.286,0.326,0.236,0.198,0.243,0.237,0.221,0.339,0.502,0.421,0.441,0.361
NCI-H2170,0.842,0.958,0.723,0.854,0.781,0.663,0.716,0.599,0.92,0.582,0.429,0.388,0.375,0.392,0.393,0.927,0.921,0.896,0.922,0.95
SW 1573,1.02,0.719,0.77,0.792,0.651,0.281,0.287,0.287,0.275,0.355,0.405,0.477,0.375,0.358,0.281,0.57,0.631,0.588,0.516,0.436
H3255,0.675,0.635,–,0.779,0.644,1.02,0.925,0.666,1.05,0.814,0.336,0.337,0.333,0.273,0.303,0.687,0.639,–,0.749,0.64
EMC-BAC-2,0.815,0.804,0.744,0.739,0.737,1.19,1.19,1.05,1.29,1.11,0.522,0.543,0.494,0.566,0.525,0.912,0.949,0.823,0.854,0.934
CAL-12T,1.23,1.27,1.19,1.16,1.18,0.443,0.575,0.513,0.221,0.504,0.515,0.6,0.411,0.408,0.407,0.331,0.357,0.33,0.371,0.365
NCI-H838,1.06,1.08,0.989,0.933,0.886,0.329,0.328,0.28,0.304,0.284,0.196,0.215,0.199,0.246,0.199,0.487,0.533,0.496,0.51,0.498
NCI-H1944,–,0.848,0.78,0.75,0.778,0.76,0.655,0.722,0.785,0.651,0.351,0.343,0.311,0.333,0.371,0.441,0.401,0.386,0.416,0.413
NCI-H1437,1.03,1.03,0.992,1.02,0.934,1.1,1.14,1.05,1.13,1.11,0.308,0.306,0.299,0.337,0.257,0.571,0.498,0.501,0.598,0.55
RERF-LC-KJ,0.864,0.877,0.733,0.847,0.675,1.28,1.11,1.29,1.34,1.19,0.994,1.02,0.992,0.939,0.728,0.948,0.815,0.781,0.811,0.928
